In patent US6750239B2, “Pyrazole-derived kinase inhibitors and uses thereof” (Vertex Pharmaceuticals Incorporated, priority 2001, dated 2004):
Like-named read-outs stand apart in the source and are kept apart here.

Target: activated ERK2 (Homo sapiens, UniProt P28482)
Assay: ERK2 inhibition spectrophotometric coupled-enzyme assay
Assay type: biochemical
Protocol: Compounds are assayed for the inhibition of ERK2 by a spectrophotometric coupled-enzyme assay (Fox et al (1998) Protein Sci 7, 2249). In this assay, a fixed concentration of activated ERK2 (10 nM) is incubated with various concentrations of the compound in DMSO (2.5%) for 10 min. at 30° C. in 0.1 M HEPES buffer, pH 7.5, containing 10 mM MgCl2, 2.5 mM phosphoenolpyruvate, 200 μM NADH, 150 μg/mL pyruvate kinase, 50 μg/mL lactate dehydrogenase, and 200 μM erktide peptide. The reaction is initiated by the addition of 65 μM ATP. The rate of decrease of absorbance at 340 nm is monitored, which indicates the extent of uninhibited enzyme present in the assay. The IC50 is evaluated from the rate data as a function of inhibitor concentration.
The compound numbers correspond to the compound numbers in Tables 1-3.

[1] = activated ERK2 10 nM, 65 μM ATP, 30° C., pH 7.5, read-out: ERK2 Inhibitory Activity (Ki class)

Chain of activated ERK2 (P28482 whole entry): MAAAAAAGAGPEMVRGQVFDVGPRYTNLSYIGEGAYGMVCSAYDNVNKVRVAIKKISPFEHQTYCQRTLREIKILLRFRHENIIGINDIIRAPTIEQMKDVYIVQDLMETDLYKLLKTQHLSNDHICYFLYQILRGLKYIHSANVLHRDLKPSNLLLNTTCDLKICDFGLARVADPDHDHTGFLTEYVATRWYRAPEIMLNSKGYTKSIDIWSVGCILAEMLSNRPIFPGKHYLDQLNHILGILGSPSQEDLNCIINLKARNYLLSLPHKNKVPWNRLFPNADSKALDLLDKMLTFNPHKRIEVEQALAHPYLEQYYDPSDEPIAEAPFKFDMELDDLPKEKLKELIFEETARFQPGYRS

| Ki [1] | Compound | Ki |
| --- | --- | --- |
| < 1000 nM | CC(=O)NC(CO)C(=O)NCc1ccc(-c2c[nH]nc2-c2c[nH]c(C(=O)N[C@H](CO)c3ccc(F)c(Cl)c3)c2)cc1Cl (stereo in doubt) [II-20, 4-(4-{4-[(2-Acetylamino-3-hydroxy-propionylamino)-methyl]-3-chloro-phenyl}-1H-pyrazol-3-yl)-1H-pyrrole-2-carboxylic acid [1-(3-chloro-4-fluoro-phenyl)-2-hydroxy-ethyl]-amide] |  |
| < 1000 nM | CS(=O)(=O)CC(=O)NCc1ccc(-c2cn[nH]c2-c2c[nH]c(C(=O)N[C@H](CO)c3ccccc3)c2)cc1Cl [II-1] |  |
| < 1000 nM | O=C(CCO)NCc1ccc(-c2cn[nH]c2-c2c[nH]c(C(=O)N[C@H](CO)c3ccccc3)c2)cc1Cl [II-4] |  |
| < 1000 nM | CC(=O)NC(CCO)C(=O)NCc1ccc(-c2cn[nH]c2-c2c[nH]c(C(=O)NC(CO)c3ccc(F)c(Cl)c3)c2)cc1Cl (stereo not drawn) [II-5] |  |
| < 1000 nM | C[S+]([O-])CC(=O)NCc1ccc(-c2cn[nH]c2-c2c[nH]c(C(=O)NC(CO)c3ccc(F)c(Cl)c3)c2)cc1Cl (stereo not drawn) [II-6] |  |
| < 1000 nM | O=C(CCCO)NCc1ccc(-c2c[nH]nc2-c2c[nH]c(C(=O)NC(CO)c3ccc(F)c(Cl)c3)c2)cc1Cl (stereo not drawn) [II-8, 4-(4-{3-Chloro-4-[(4-hydroxy-butyrylamino)-methyl]-phenyl}-1H-pyrazol-3-yl)-1H-pyrrole-2-carboxylic acid [1-(3-chloro-4-fluoro-phenyl)-2-hydroxy-ethyl]-amide] |  |
| < 1000 nM | CC(=O)N[C@@H](C)C(=O)NCc1ccc(-c2cn[nH]c2-c2c[nH]c(C(=O)NC(CO)c3ccc(F)c(Cl)c3)c2)cc1Cl (stereo partly drawn) [II-10] |  |
| < 1000 nM | CC(=O)N[C@H](C)C(=O)NCc1ccc(-c2cn[nH]c2-c2c[nH]c(C(=O)NC(CO)c3ccc(F)c(Cl)c3)c2)cc1Cl (stereo partly drawn) [II-11] |  |
| < 1000 nM | CC(=O)N[C@@H](CS)C(=O)NCc1ccc(-c2cn[nH]c2-c2c[nH]c(C(=O)NC(CO)c3ccc(F)c(Cl)c3)c2)cc1Cl (stereo partly drawn) [II-12] |  |
| < 1000 nM | CN(C)CC(=O)NCc1ccc(-c2cn[nH]c2-c2c[nH]c(C(=O)NC(CO)c3ccc(F)c(Cl)c3)c2)cc1Cl (stereo not drawn) [II-13] |  |
| < 1000 nM | CC(C)(C)OC(=O)N[C@@H](CO)C(=O)NCc1ccc(-c2cn[nH]c2-c2c[nH]c(C(=O)NC(CO)c3ccc(F)c(Cl)c3)c2)cc1Cl (stereo partly drawn) [II-14] |  |
| < 1000 nM | N[C@@H](CO)C(=O)NCc1ccc(-c2cn[nH]c2-c2c[nH]c(C(=O)NC(CO)c3ccc(F)c(Cl)c3)c2)cc1Cl (stereo partly drawn) [II-15] |  |
| < 1000 nM | CC(=O)NC(CC[S+](C)[O-])C(=O)NCc1ccc(-c2cn[nH]c2-c2c[nH]c(C(=O)NC(CO)c3ccc(F)c(Cl)c3)c2)cc1Cl (stereo not drawn) [II-16] |  |
| < 1000 nM | CC(C)(C)OC(=O)N[C@H](CO)C(=O)NCc1ccc(-c2cn[nH]c2-c2c[nH]c(C(=O)NC(CO)c3ccc(F)c(Cl)c3)c2)cc1Cl (stereo partly drawn) [II-17] |  |
| < 1000 nM | N[C@H](CO)C(=O)NCc1ccc(-c2cn[nH]c2-c2c[nH]c(C(=O)NC(CO)c3ccc(F)c(Cl)c3)c2)cc1Cl (stereo partly drawn) [II-18] |  |
| < 1000 nM | CC(=O)NC(CO)C(=O)NCc1ccc(-c2cn[nH]c2-c2c[nH]c(C(=O)N[C@H](CO)c3cccc(Cl)c3)c2)cc1Cl (stereo partly drawn) [II-19] |  |
| < 1000 nM | CCCCNCc1ccc(-c2cn[nH]c2-c2c[nH]c(C(=O)N[C@H](CO)c3ccc(F)c(Cl)c3)c2)cc1Cl [II-22] |  |
| < 1000 nM | CCCCN(CCCC)Cc1ccc(-c2cn[nH]c2-c2c[nH]c(C(=O)N[C@H](CO)c3ccc(F)c(Cl)c3)c2)cc1Cl [II-23] |  |
| < 1000 nM | CCCNCc1ccc(-c2cn[nH]c2-c2c[nH]c(C(=O)N[C@H](CO)c3ccc(F)c(Cl)c3)c2)cc1Cl [II-27] |  |

| Ki [1] | Compound | Ki |
| --- | --- | --- |
| < 1000 nM | CCCN(CCC)Cc1ccc(-c2cn[nH]c2-c2c[nH]c(C(=O)N[C@H](CO)c3ccc(F)c(Cl)c3)c2)cc1Cl [II-28] |  |
| < 1000 nM | CCOC(=O)CNCc1ccc(-c2c[nH]nc2-c2c[nH]c(C(=O)N[C@H](CO)c3ccc(F)c(Cl)c3)c2)cc1Cl [II-29] |  |
| < 1000 nM | O=C(N[C@H](CO)c1ccc(F)c(Cl)c1)c1cc(-c2[nH]ncc2-c2ccc(CNCCO)c(Cl)c2)c[nH]1 [II-30] |  |
| < 1000 nM | CC(O)CNCc1ccc(-c2cn[nH]c2-c2c[nH]c(C(=O)N[C@H](CO)c3ccc(F)c(Cl)c3)c2)cc1Cl (stereo partly drawn) [II-31] |  |
| < 1000 nM | CC(O)CCNCc1ccc(-c2cn[nH]c2-c2c[nH]c(C(=O)N[C@H](CO)c3ccc(F)c(Cl)c3)c2)cc1Cl (stereo partly drawn) [II-32] |  |
| < 1000 nM | N#CCNCc1ccc(-c2cn[nH]c2-c2c[nH]c(C(=O)N[C@H](CO)c3ccc(F)c(Cl)c3)c2)cc1Cl [II-33] |  |
| < 1000 nM | CCN(CC)Cc1ccc(-c2cn[nH]c2-c2c[nH]c(C(=O)N[C@H](CO)c3ccc(F)c(Cl)c3)c2)cc1Cl [II-34] |  |
|  | O=C(N[C@H](CO)c1ccc(F)c(Cl)c1)c1cc(-c2[nH]ncc2-c2ccc(CNCCCl)c(Cl)c2)c[nH]1 [II-35] | < 1000 nM |
|  | O=C(N[C@H](CO)c1ccc(F)c(Cl)c1)c1cc(-c2[nH]ncc2-c2ccc(CN(CCCl)CCCl)c(Cl)c2)c[nH]1 [II-36] | < 1000 nM |
| < 1000 nM | CC(C)(C)OC(=O)NCCNCc1ccc(-c2cn[nH]c2-c2c[nH]c(C(=O)N[C@H](CO)c3ccc(F)c(Cl)c3)c2)cc1Cl [II-37] |  |
| < 1000 nM | CCN(CC)CC(=O)NCc1ccc(-c2cn[nH]c2-c2c[nH]c(C(=O)N[C@H](CO)c3ccc(F)c(Cl)c3)c2)cc1Cl [II-38] |  |
| < 1000 nM | CC(CC(=O)N(C)C)NCc1ccc(-c2cn[nH]c2-c2c[nH]c(C(=O)N[C@H](CO)c3ccc(F)c(Cl)c3)c2)cc1Cl (stereo partly drawn) [II-52] |  |
| < 1000 nM | CCC(=O)CNCc1ccc(-c2cn[nH]c2-c2c[nH]c(C(=O)N[C@H](CO)c3ccc(F)c(Cl)c3)c2)cc1Cl [II-53] |  |
| < 1000 nM | CC(C)N(C)Cc1ccc(-c2cn[nH]c2-c2c[nH]c(C(=O)N[C@H](CO)c3ccc(F)c(Cl)c3)c2)cc1Cl [II-54] |  |
| < 1000 nM | CCOC(=O)C(C)NCc1ccc(-c2cn[nH]c2-c2c[nH]c(C(=O)N[C@H](CO)c3ccc(F)c(Cl)c3)c2)cc1Cl (stereo partly drawn) [II-55] |  |
| < 1000 nM | N[C@H](CO)C(=O)NCc1ccc(-c2cn[nH]c2-c2c[nH]c(C(=O)N[C@H](CO)c3ccc(F)c(Cl)c3)c2)cc1Cl [II-56] |  |
| < 1000 nM | CC(C)NCc1ccc(-c2cn[nH]c2-c2c[nH]c(C(=O)N[C@H](CO)c3ccc(F)c(Cl)c3)c2)cc1C(F)(F)F [II-57] |  |
| < 1000 nM | CC(C(=O)O)N(C)Cc1ccc(-c2cn[nH]c2-c2c[nH]c(C(=O)N[C@H](CO)c3ccc(F)c(Cl)c3)c2)cc1C(F)(F)F (stereo partly drawn) [II-58] |  |
| < 1000 nM | CNC(=O)C(C)N(C)Cc1ccc(-c2cn[nH]c2-c2c[nH]c(C(=O)N[C@H](CO)c3ccc(F)c(Cl)c3)c2)cc1C(F)(F)F (stereo partly drawn) [II-59] |  |

| Ki [1] | Compound | Ki |
| --- | --- | --- |
| < 1000 nM | CC(NCc1ccc(-c2cn[nH]c2-c2c[nH]c(C(=O)N[C@H](CO)c3ccc(F)c(Cl)c3)c2)cc1C(F)(F)F)C(=O)N(C)C (stereo partly drawn) [II-60] |  |
| < 1000 nM | CC(C(=O)N(C)C)N(C)Cc1ccc(-c2cn[nH]c2-c2c[nH]c(C(=O)N[C@H](CO)c3ccc(F)c(Cl)c3)c2)cc1C(F)(F)F (stereo partly drawn) [II-61] |  |
| < 1000 nM | CCOC(=O)C(C)NCc1ccc(-c2cn[nH]c2-c2c[nH]c(C(=O)N[C@H](CO)c3ccc(F)c(Cl)c3)c2)cc1C(F)(F)F (stereo partly drawn) [II-62] |  |
| < 1000 nM | CCOC(=O)C(C)N(C)Cc1ccc(-c2cn[nH]c2-c2c[nH]c(C(=O)N[C@H](CO)c3ccc(F)c(Cl)c3)c2)cc1Cl (stereo partly drawn) [II-63] |  |
| < 1000 nM | CCOC(=O)C(C)N(C)Cc1ccc(-c2cn[nH]c2-c2c[nH]c(C(=O)N[C@H](CO)c3ccc(F)c(Cl)c3)c2)cc1C(F)(F)F (stereo partly drawn) [II-64] |  |
| < 1000 nM | CNC(=O)C(C)NCc1ccc(-c2cn[nH]c2-c2c[nH]c(C(=O)N[C@H](CO)c3ccc(F)c(Cl)c3)c2)cc1C(F)(F)F (stereo partly drawn) [II-65] |  |
| < 1000 nM | CC(NCc1ccc(-c2cn[nH]c2-c2c[nH]c(C(=O)N[C@H](CO)c3ccc(F)c(Cl)c3)c2)cc1Cl)C(=O)N(C)C (stereo partly drawn) [II-66] |  |
| < 1000 nM | CN[C@@H](CO)C(=O)NCc1ccc(-c2cn[nH]c2-c2c[nH]c(C(=O)N[C@H](CO)c3ccc(F)c(Cl)c3)c2)cc1Cl [II-67] |  |
| < 1000 nM | NCCNCc1ccc(-c2cn[nH]c2-c2c[nH]c(C(=O)N[C@H](CO)c3ccc(F)c(Cl)c3)c2)cc1Cl [II-68] |  |
| < 1000 nM | C[C@H](N)C(=O)NCc1ccc(-c2cn[nH]c2-c2c[nH]c(C(=O)N[C@H](CO)c3ccc(F)c(Cl)c3)c2)cc1Cl [II-69] |  |
| < 1000 nM | CC(C)NCc1ccc(-c2cn[nH]c2-c2c[nH]c(C(=O)N[C@H](CO)c3ccc(F)c(Cl)c3)c2)cc1Cl [II-70] |  |
| < 1000 nM | CCNC(=O)CNCc1ccc(-c2cn[nH]c2-c2c[nH]c(C(=O)N[C@H](CO)c3ccc(F)c(Cl)c3)c2)cc1Cl [II-71] |  |
| < 1000 nM | CCOC(=O)CC(C)NCc1ccc(-c2cn[nH]c2-c2c[nH]c(C(=O)N[C@H](CO)c3ccc(F)c(Cl)c3)c2)cc1Cl (stereo partly drawn) [II-72] |  |
| < 1000 nM | CCC(=O)CN(CC(=O)CC)Cc1ccc(-c2cn[nH]c2-c2c[nH]c(C(=O)N[C@H](CO)c3ccc(F)c(Cl)c3)c2)cc1Cl [II-73] |  |
| < 1000 nM | NC(=O)CN(CC(N)=O)Cc1ccc(-c2cn[nH]c2-c2c[nH]c(C(=O)N[C@H](CO)c3ccc(F)c(Cl)c3)c2)cc1Cl [II-74] |  |
| < 1000 nM | N[C@@H](CO)C(=O)NCc1ccc(-c2cn[nH]c2-c2c[nH]c(C(=O)N[C@H](CO)c3ccc(F)c(Cl)c3)c2)cc1Cl [II-75] |  |
| < 1000 nM | NC(=O)CNCc1ccc(-c2cn[nH]c2-c2c[nH]c(C(=O)N[C@H](CO)c3ccc(F)c(Cl)c3)c2)cc1Cl [II-76] |  |
| < 1000 nM | C[C@@H](O)[C@H](N)C(=O)NCc1ccc(-c2cn[nH]c2-c2c[nH]c(C(=O)N[C@H](CO)c3ccc(F)c(Cl)c3)c2)cc1Cl [II-77] |  |

| Compound | Ki [1] | Ki |
| --- | --- | --- |
| 4-{4-[3-Chloro-4-(methanesulfonylamino-methyl)-phenyl]-1H-pyrazol-3-yl}-1H-pyrrole-2-carboxylic acid [1-(3-chloro-4-fluoro-phenyl)-2-hydroxy-ethyl]-amide [II-2] | < 1000 nM |  |
